SMILES strings stand for the structures.

What all share (design): species or system Membrane
One test has as its target T1, D(4) dopamine receptor (Homo sapiens, UniProt P21917).
T1 sequence (P21917 whole entry): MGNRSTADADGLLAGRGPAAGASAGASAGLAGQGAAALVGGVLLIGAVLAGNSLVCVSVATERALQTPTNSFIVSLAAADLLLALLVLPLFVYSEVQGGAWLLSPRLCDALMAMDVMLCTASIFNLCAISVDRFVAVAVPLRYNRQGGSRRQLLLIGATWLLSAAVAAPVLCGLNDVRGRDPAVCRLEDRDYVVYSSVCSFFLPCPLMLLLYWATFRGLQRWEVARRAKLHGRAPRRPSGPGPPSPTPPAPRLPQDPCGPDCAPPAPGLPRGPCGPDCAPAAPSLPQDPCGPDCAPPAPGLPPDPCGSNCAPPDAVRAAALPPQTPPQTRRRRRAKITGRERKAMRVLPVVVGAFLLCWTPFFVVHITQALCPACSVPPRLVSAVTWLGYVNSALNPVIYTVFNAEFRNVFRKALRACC
Put plainly: Displacement of [3H]-N-methylspiperone from human dopamine D4 receptor expressed in HEK293 cell membranes incubated for 60 mins by microbeta scintillation counting analysis. On the technique in general: Loss of bound radioactivity is the signal in a displacement assay; it reports binding, not function.

Test [1] has as its target T2, D(2) dopamine receptor (Homo sapiens, UniProt P14416). In words: Displacement of [3H]-N-methylspiperone from human dopamine D2 receptor expressed in HEK293 cell membranes incubated for 60 mins by microbeta scintillation counting analysis.
Test [2] has as its target T3, D(3) dopamine receptor (Homo sapiens, UniProt P35462). In words: Displacement of [3H]-N-methylspiperone from human dopamine D3 receptor expressed in HEK293 cell membranes incubated for 60 mins by microbeta scintillation counting analysis.
The target in test [3] is T2, D(2) dopamine receptor. Put plainly: Displacement of [3H]-(R)-(+)7-OH-DPAT from human dopamine D2 receptor expressed in HEK293 cell membranes incubated for 90 mins by microbeta scintillation counting analysis.
Test [4] deals with T3, D(3) dopamine receptor. In words: Displacement of [3H]-(R)-(+)7-OH-DPAT from human dopamine D3 receptor expressed in HEK293 cell membranes incubated for 90 mins by microbeta scintillation counting analysis.

T2 sequence (P14416 whole entry): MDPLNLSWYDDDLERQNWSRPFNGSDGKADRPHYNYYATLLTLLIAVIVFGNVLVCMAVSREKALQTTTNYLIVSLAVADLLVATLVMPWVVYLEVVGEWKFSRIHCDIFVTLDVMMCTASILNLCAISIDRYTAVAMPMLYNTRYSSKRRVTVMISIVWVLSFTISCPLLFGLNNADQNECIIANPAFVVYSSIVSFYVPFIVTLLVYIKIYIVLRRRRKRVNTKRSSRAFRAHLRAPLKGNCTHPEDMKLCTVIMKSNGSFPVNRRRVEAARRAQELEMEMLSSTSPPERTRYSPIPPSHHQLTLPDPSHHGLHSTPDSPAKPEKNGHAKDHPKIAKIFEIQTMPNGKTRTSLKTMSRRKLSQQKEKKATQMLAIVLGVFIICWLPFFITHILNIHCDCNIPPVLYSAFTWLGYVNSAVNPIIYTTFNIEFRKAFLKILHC
T3 sequence (P35462 whole entry): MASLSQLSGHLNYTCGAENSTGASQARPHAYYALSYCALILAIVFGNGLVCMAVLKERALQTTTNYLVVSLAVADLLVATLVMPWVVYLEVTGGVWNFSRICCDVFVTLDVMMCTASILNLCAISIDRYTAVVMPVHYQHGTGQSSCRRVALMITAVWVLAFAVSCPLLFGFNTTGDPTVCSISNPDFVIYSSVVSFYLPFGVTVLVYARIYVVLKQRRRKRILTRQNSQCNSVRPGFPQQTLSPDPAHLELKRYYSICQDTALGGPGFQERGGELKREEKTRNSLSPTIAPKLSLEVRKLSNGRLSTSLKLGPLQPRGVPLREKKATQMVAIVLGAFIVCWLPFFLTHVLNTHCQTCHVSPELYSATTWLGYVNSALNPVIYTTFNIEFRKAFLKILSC

For `CCc1cccc(N2CCN(CCC(c3cccc(O)c3)c3cccc(OC)c3)CC2)c1Cl` (stereo unspecified), the values for the Ki on D(4) dopamine receptor and on D(2) dopamine receptor [1] were 38.5 nM and 190 nM, respectively.
`CCC(=O)C(CCN(C)C)(c1ccccc1)c1ccccc1` [NORMETHADONE]: the Ki was over 100000 nM on D(4) dopamine receptor, 4270 nM on D(3) dopamine receptor [2] and 34900 nM on D(2) dopamine receptor [1].
On the same counts, the results for `CN(C)C(=O)C(CCNCCc1ccccc1)(c1ccccc1)c1ccccc1` are 12600 nM, 2080 nM and 3650 nM.
On to `Oc1cccc([C@]23CCC[C@H](NCC2)[C@H]3O)c1`, for which the Ki at D(4) dopamine receptor, on D(2) dopamine receptor [3], on D(3) dopamine receptor [2], at D(3) dopamine receptor [4] and on D(2) dopamine receptor [1] was over 100000 nM in each case.
For `CN(C)C(=O)C(CCN1CCC(O)(c2ccc(Cl)cc2)CC1)(c1ccccc1)c1ccccc1` [LOPERAMIDE], the Ki was determined as 1850 nM at D(4) dopamine receptor, […] on D(3) dopamine receptor [2] and 5790 nM on D(2) dopamine receptor [1].
On to `N#CC(CCNCCC(O)CN1CCN(c2cccc(Cl)c2Cl)CC1)(c1ccccc1)c1ccccc1` (stereo unspecified), for which the Ki at D(4) dopamine receptor turned out to be 426 nM; at D(3) dopamine receptor [2] it was 460 nM; on D(2) dopamine receptor [1] it was 903 nM.
`CCOC(=O)/C=C1\[C@@H]2CCC[C@@]1(c1cccc(O)c1)CCN2CCN1CCN(c2cccc(Cl)c2Cl)CC1`: the Ki on D(4) dopamine receptor came to 1600 nM; at D(2) dopamine receptor [1], 51.6 nM.
Regarding `Oc1cccc([C@@]23CCC[C@@H]([C@H]2O)N(C/C=C/c2ccccc2)CC3)c1`, the Ki at D(4) dopamine receptor was 36900 nM; on D(2) dopamine receptor [3], 2790 nM; at D(3) dopamine receptor [2] it was 15700 nM; on D(3) dopamine receptor [4] it was 20000 nM; at D(2) dopamine receptor [1], 7380 nM.
Regarding `O=C(NCCCCN1CC[C@]2(c3cccc(O)c3)CCC[C@H]1[C@H]2O)c1cc2ccccc2[nH]1`, the figures for the Ki at D(4) dopamine receptor and at D(2) dopamine receptor [1] were 3810 nM and 1310 nM, respectively.
For `CN(C)CCC(C(=O)N(C)C)(c1ccccc1)c1ccccc1`, the Ki was 20200 nM at D(4) dopamine receptor, 36900 nM on D(3) dopamine receptor [2] and over 100000 nM on D(2) dopamine receptor [1].
With `CN(C)C(=O)C(CCN1CCN(c2cccc(Cl)c2Cl)CC1)(c1ccccc1)c1ccccc1`, the Ki is 102 nM at D(4) dopamine receptor, 31.3 nM on D(2) dopamine receptor [3] and 74.7 nM on D(2) dopamine receptor [1].
As to `CCc1cccc(N2CCN(CCC(C(=O)N(C)C)(c3ccccc3)c3ccccc3)CC2)c1Cl`, the Ki at D(4) dopamine receptor came to 64.8 nM; at D(2) dopamine receptor [3] it was 20.3 nM; at D(3) dopamine receptor [2], 69 nM; at D(3) dopamine receptor [4], 197 nM; on D(2) dopamine receptor [1], 43 nM.
With `CCC(=O)N1CCC(c2ccccc2)(c2ccccc2)C1`, the Ki on D(4) dopamine receptor, on D(3) dopamine receptor [2] and on D(2) dopamine receptor [1] was over 100000 nM each time.
On to `N#CC(CCNCCc1ccccc1)(c1ccccc1)c1ccccc1`, for which the Ki was 13900 nM on D(4) dopamine receptor, 8960 nM at D(3) dopamine receptor [2] and 17600 nM at D(2) dopamine receptor [1].
Turning to `CCc1cccc(N2CCN(CCC(c3cccc(OC)c3)c3cccc(OC)c3)CC2)c1Cl`, the Ki on D(4) dopamine receptor was determined as 63.4 nM; on D(3) dopamine receptor [2], 93.8 nM; at D(2) dopamine receptor [1] it was 170 nM.
Turning to `CN(C)C(=O)C(CCNCCCCN1CCc2ccc(C#N)cc2C1)(c1ccccc1)c1ccccc1`, the Ki on D(4) dopamine receptor worked out at 58900 nM; on D(3) dopamine receptor [2] it was 1060 nM; on D(2) dopamine receptor [1], 1240 nM.
The corresponding values for `CCc1cc(Cl)c(OC)c(C(=O)NCC2CCCN2CC(=O)N2CCC(c3ccccc3)(c3ccccc3)C2)c1O` (stereo unspecified) are 31000 nM, 288 nM and 2380 nM.
On to `CCOC(=O)/C=C1\[C@@H]2CCC[C@@]1(c1cccc(O)c1)CCN2CC1CC1CCNC(=O)c1cc2ccccc2[nH]1` (stereo partly specified), for which the values for the Ki at D(4) dopamine receptor, at D(3) dopamine receptor [2] and on D(2) dopamine receptor [1] were 23400 nM, 4350 nM and 3890 nM, respectively.
For `CN(C)CCC(C(=O)NCCCCN1CCN(c2cccc(Cl)c2Cl)CC1)(c1ccccc1)c1ccccc1`, the Ki on D(4) dopamine receptor turned out to be 466 nM; on D(3) dopamine receptor [2], 11.8 nM; at D(2) dopamine receptor [1], 42.7 nM.
The corresponding values for `CCc1cc(Cl)c(OC)c(C(=O)NC[C@@H]2CCCN2CCC(C#N)(c2ccccc2)c2ccccc2)c1O` are over 100000 nM, 1550 nM and 12400 nM.
The corresponding values for `N#CC(CCNCCCCC(=O)N1CCN(c2cccc(Cl)c2Cl)CC1)(c1ccccc1)c1ccccc1` are 3930 nM, 1360 nM and 1940 nM.
As to `CCOC(=O)/C=C1\[C@@H]2CCC[C@@]1(c1cccc(O)c1)CCN2`, the Ki at D(4) dopamine receptor, on D(3) dopamine receptor [2] and on D(2) dopamine receptor [1] was over 100000 nM each time.
Compound `CN(C)C(=O)C(CCNCCCCN1CCN(c2cccc(Cl)c2Cl)CC1)(c1ccccc1)c1ccccc1` displayed a Ki at D(4) dopamine receptor of 378 nM.
On to `CCC(=O)C(CC(C)N(C)C)(c1ccccc1)c1ccccc1` (stereo unspecified) [METHADONE], for which the Ki was 26200 nM at D(4) dopamine receptor, 2110 nM on D(3) dopamine receptor [2] and over 100000 nM on D(2) dopamine receptor [1].
For the compound `CN(C)C(=O)C(CCN1CCc2ccc(C#N)cc2C1)(c1ccccc1)c1ccccc1`, the Ki on D(4) dopamine receptor is 18000 nM; at D(3) dopamine receptor [2], 1630 nM; at D(2) dopamine receptor [1] it was 2270 nM.
As for `N#CC(CCNCCCCN1CCN(c2cccc(Cl)c2Cl)CC1)(c1ccccc1)c1ccccc1`, the Ki at D(4) dopamine receptor was found to be 25.9 nM; at D(2) dopamine receptor [3], 36.3 nM; on D(2) dopamine receptor [1] it was 149 nM.
As for `Oc1cccc(C(CCNCCCCN2CCN(c3ccccc3)CC2)c2cccc(O)c2)c1`, the values for the Ki on D(4) dopamine receptor, on D(3) dopamine receptor [2] and on D(2) dopamine receptor [1] were 422 nM, 249 nM and 987 nM, respectively.
In the case of `CCc1cc(Cl)c(OC)c(C(=O)NC[C@@H]2C[C@@H](OCCCCNCCC(C(=O)N(C)C)(c3ccccc3)c3ccccc3)CN2)c1O`, the Ki stood at 674 nM at D(4) dopamine receptor, 2.21 nM on D(3) dopamine receptor [2] and 9.41 nM at D(2) dopamine receptor [1].
The corresponding values for `COc1cccc(C(=CCNCCCCN2CCN(c3cccc(Cl)c3Cl)CC2)c2cccc(OC)c2)c1` are 26100 nM, 342 nM and 5240 nM.
As for `N#CC(CCN1CCN(c2cccc(Cl)c2Cl)CC1)(c1ccccc1)c1ccccc1`, the Ki on D(4) dopamine receptor is 8490 nM; at D(3) dopamine receptor [2] it was 2240 nM; at D(2) dopamine receptor [1] it was 2630 nM.
As to `O=C(NCCCCN1CC[C@]2(c3cccc(O)c3)CCC[C@H]1[C@@H]2O)c1cc2ccccc2[nH]1`, the Ki on D(4) dopamine receptor stood at 5630 nM; on D(3) dopamine receptor [2], 5630 nM; at D(2) dopamine receptor [1] it was 4530 nM.
On to `CCc1cc(Cl)c(OC)c(C(=O)NCC2CCCN2CCCCNCCC(C(=O)N(C)C)(c2ccccc2)c2ccccc2)c1O` (stereo unspecified), for which the Ki at D(4) dopamine receptor was 3420 nM; on D(2) dopamine receptor [3], 93.7 nM; on D(2) dopamine receptor [1], 502 nM.
For `CCc1cc(Cl)c(OC)c(C(=O)NC[C@@H]2CCCN2CCCCNCCC(C(=O)N(C)C)(c2ccccc2)c2ccccc2)c1O`, the results for the Ki on D(4) dopamine receptor and on D(2) dopamine receptor [1] were 6610 nM and 1730 nM, respectively.
Turning to `CCOC(=O)/C=C1\[C@@H]2CCC[C@@]1(c1cccc(O)c1)CCN2CCc1ccccc1`, the Ki was determined as 5470 nM at D(4) dopamine receptor, 186 nM at D(2) dopamine receptor [3] and 636 nM on D(2) dopamine receptor [1].
Consider `CN1CCC(c2ccccc2)(c2ccccc2)C1`, for which the Ki at D(4) dopamine receptor is 35400 nM; on D(3) dopamine receptor [2] it was over 100000 nM; on D(2) dopamine receptor [1] it was over 100000 nM.
Take `CN(C)CCC(C#N)(c1ccccc1)c1ccccc1`: the figures for the Ki on D(4) dopamine receptor, at D(3) dopamine receptor [2] and at D(2) dopamine receptor [1] were 23200 nM, 16100 nM and 17900 nM, respectively.
`CCc1cccc(N2CCN(CCC(c3cccc(O)c3)c3cccc(O)c3)CC2)c1Cl`: the figures for the Ki on D(4) dopamine receptor, at D(3) dopamine receptor [2] and on D(2) dopamine receptor [1] were 19.2 nM, 200 nM and 187 nM, respectively.

By Ki is commonly meant a dissociation constant, usually derived from enzyme kinetics or from competition with a known ligand.

The values are drawn from ChEMBL document CHEMBL5046218, “Novel Dual-Target μ-Opioid Receptor and Dopamine D3 Receptor Ligands as Potential Nonaddictive Pharmacotherapeutics for Pain Management” (J Med Chem, 2021).
